The source of these data is patent US20250122166A1, “SUBSTITUTED N-((2-(2,6-DIOXOPIPERIDIN-3-YL)-1-OXOISOINDOLIN-4-YL)METHYL)BENZAMIDE ANALOGS AS MODULATORS OF CEREBLON PROTEIN” (ST. JUDE CHILDREN'S RESEARCH HOSPITAL, INC., priority 2021, published 2025).

Structures are written as SMILES. Where only a bound is given, the exact number is not on record here.

One test has as its system MOLM-13 cells. The experiment in a line: Cell proliferation assay (Cell Titer-Glo, 72 h). Conditions: Homo sapiens, 72 h incubation, * = cytostatic 50%. The format is cell-based. The protocol:
MOLM-13 cell line was purchased from the Leibniz Institute DSMZ (ACC 554). The cells were cultured according to recommendations in RPMI 1640 cell culture media with 20% FBS (DSMZ). Exponentially growing MOLM-13 cells were plated at 1250 cells per well in Corning 8804BC white 384-well assay plates and incubated overnight at 37° C. in a humidified 5% CO2 incubator. Compounds were transferred to the assay plate from a dose-response plate using a Pintool on a Biomek FXP Laboratory Automation Workstation (Beckman Coulter). Cytotoxicity was determined following 72 hours of incubation using Promega Cell Titer Glo reagent according to the manufacturer's recommendation. Luminescence was measured on an Envision plate reader (Perkin-Elmer).
Compounds were screened in human cancer cell lines and each cell line was cultured in the complete medium recommended by the vendor and seeded in Corning 8804BC white 384-well assay plates at density of 1250 cells per well for MOLM-13 cells. After overnight incubation at 37° C. in a humidified 5% CO2 incubator, cells were treated with compounds in dose-response format using a Pintool on a Biomek FXP Laboratory Automation Workstation (Beckman Coulter). After 72h incubation, cell proliferation was assessed using Cell Titer-Glo (CTG) luminescent cell viability assay (Promega) according to the manufacturer's instruction. Luminescence signal was measured using an Envision plate reader (Perkin-Elmer).
(In general: ATP-based viability assays read luminescence as a measure of living cells.)

For another test, the target named is 6XHis-CRBN-DDB1 protein (Homo sapiens (Human), UniProt Q96SW2). Put plainly: CRBN fluorescence polarization assay (competitive, Cy5-O-Len probe). Particulars: 6XHis-CRBN-DDB1 200 nM, Cy5-O-Len probe 30 nM, 1 hour; mean of three determinations; read-out: CRBN FP (IC50). The format is binding. Here is the method:
In this competitive fluorescent polarization assay Cy5 conjugated lenalidomide analog (Cy5—O-Len)^1 was used as a fluorescent probe. 6XHis-CRBN-DDB1 protein (200 nM) and Cy5—O-Len probe (30 nM) were combined in 20 mM HEPES pH 7, 150 mM NaCl, 0.005% Tween-20 assay buffer. 20 μL of this assay cocktail was dispensed into wells of Corning 3821 black 384-well plates. Compounds were transferred to the assay plate from a dose-response plate using a Pintool on a Biomek FXP Laboratory Automation Workstation (Beckman Coulter). The plates were incubated in the dark for 1 hour at room temperature and then read on an Envision plate reader (PerkinElmer, Massachusetts, USA). IC50 values were determined using a proprietary software RISE (Robust Investigation of Screening Experiments), developed in house on the Pipeline Pilot platform (Biovia, v. 17.2.0). Data represent the mean of three independent determinations.
(In fluorescence polarisation assays a small probe gives low polarisation when free and higher when bound to something large.)

As to `O=C1CCC(N2Cc3c(CNC(=O)c4ccc(F)c(C(F)(F)F)c4)cccc3C2=O)C(=O)N1` (centres unmarked) [Compound 22, N-((2-(2,6-dioxopiperidin-3-yl)-1-oxoisoindolin-4-yl)methyl)-4-fluoro-3-(trifluoromethyl)benzamide], the EC50 (in general, the concentration needed to bring the measured effect to its halfway point) in the test with MOLM-13 cells is below 1000 nM. Further, the IC50 – broadly, the point on the concentration scale where inhibition reaches its midpoint – on 6XHis-CRBN-DDB1 protein was below 1000 nM.

In the case of `O=C1CCC(N2Cc3c(CNC(=O)c4cccc(C(F)F)c4)cccc3C2=O)C(=O)N1` (centres unmarked) [Compound 23, 3-(difluoromethyl)-N-((2-(2,6-dioxopiperidin-3-yl)-1-oxoisoindolin-4-yl)methyl)benzamide], the EC50 in the test with MOLM-13 cells was below 1000 nM. Besides, the IC50 on 6XHis-CRBN-DDB1 protein lay within 1000 to 10000 nM.

The molecule `O=C1CCC(N2Cc3c(CNC(=O)c4cccc(F)c4)cccc3C2=O)C(=O)N1` (centres unmarked) [Compound 9, N-((2-(2,6-dioxopiperidin-3-yl)-1-oxoisoindolin-4-yl)methyl)-3-fluorobenzamide] yielded an EC50 in the test with MOLM-13 cells below 1000 nM. Further, the IC50 on 6XHis-CRBN-DDB1 protein is 1000 to 10000 nM.

With `O=C1CCC(N2Cc3c(CNC(=O)c4ccccc4Cl)cccc3C2=O)C(=O)N1` (centres unmarked) [Compound 46, 2-chloro-N-((2-(2,6-dioxopiperidin-3-yl)-1-oxoisoindolin-4-yl)methyl)benzamide], the concentration for a half-maximal effect (EC50) with MOLM-13 cells was below 1000 nM. For the same molecule, the IC50 at 6XHis-CRBN-DDB1 protein lay in the range of 1000 to 10000 nM.

With `O=C1CCC(N2Cc3c(CNC(=O)c4ccc(C(F)F)cc4)cccc3C2=O)C(=O)N1` (centres unmarked) [Compound 24, 4-(difluoromethyl)-N-((2-(2,6-dioxopiperidin-3-yl)-1-oxoisoindolin-4-yl)methyl)benzamide], in the test on MOLM-13 cells, the concentration giving a half-maximal response (EC50) is below 1000 nM. The IC50 at 6XHis-CRBN-DDB1 protein fell in the range of 1000 to 10000 nM.

The molecule `O=C1CCC(N2Cc3c(CNC(=O)c4ccc5nc[nH]c5c4)cccc3C2=O)C(=O)N1` (centres unmarked) [Compound 42, N-((2-(2,6-dioxopiperidin-3-yl)-1-oxoisoindolin-4-yl)methyl)-1H-benzo[d]imidazole-6-carboxamide] had a concentration for a half-maximal effect (EC50) with MOLM-13 cells of 1000 to 10000 nM. At 6XHis-CRBN-DDB1 protein, the IC50 is 1000 to 10000 nM.

Take `O=C1CCC(N2Cc3c(CNC(=O)c4cccs4)cccc3C2=O)C(=O)N1` (centres unmarked) [Compound 27, N-((2-(2,6-dioxopiperidin-3-yl)-1-oxoisoindolin-4-yl)methyl)thiophene-2-carboxamide]: in the test on MOLM-13 cells, the EC50 is above 10000 nM. For the same molecule, the IC50 on 6XHis-CRBN-DDB1 protein is below 1000 nM.

`O=C1CCC(N2Cc3c(CNC(=O)c4ccccc4Nc4cccc(C(F)(F)F)c4)cccc3C2=O)C(=O)N1` (centres unmarked) [Compound 43, N-((2-(2,6-dioxopiperidin-3-yl)-1-oxoisoindolin-4-yl)methyl)-2-((3-(trifluoromethyl)phenyl)amino)benzamide]: the EC50 in the test with MOLM-13 cells is below 1000 nM. Also, at 6XHis-CRBN-DDB1 protein, the IC50 fell in the range of 1000 to 10000 nM.

In the test with MOLM-13 cells, `O=C1CCC(N2Cc3c(CNC(=O)c4cccc(OC(F)(F)F)c4)cccc3C2=O)C(=O)N1` (centres unmarked) [Compound 20, N-((2-(2,6-dioxopiperidin-3-yl)-1-oxoisoindolin-4-yl)methyl)-3-(trifluoromethoxy)benzamide] came in with an EC50 below 1000 nM. Also, the IC50 on 6XHis-CRBN-DDB1 protein lay in the range of 1000 to 10000 nM.

With `O=C1CCC(N2Cc3c(CNC(=O)c4ccccc4C(F)(F)F)cccc3C2=O)C(=O)N1` (centres unmarked) [Compound 4, N-((2-(2,6-dioxopiperidin-3-yl)-1-oxoisoindolin-4-yl)methyl)-2-(trifluoromethyl)benzamide], in the test with MOLM-13 cells, the concentration for a half-maximal effect (EC50) is above 10000 nM. Further, on 6XHis-CRBN-DDB1 protein, the half-inhibitory concentration (IC50) is 1000 to 10000 nM.

In the case of `CCCc1ccc(C(=O)NCc2cccc3c2CN(C2CCC(=O)NC2=O)C3=O)cc1` (centres unmarked) [Compound 30, N-((2-(2,6-dioxopiperidin-3-yl)-1-oxoisoindolin-4-yl)methyl)-4-propylbenzamide], in the test with MOLM-13 cells, the EC50 is below 1000 nM. In addition, at 6XHis-CRBN-DDB1 protein, the IC50 is below 1000 nM.

The molecule `O=C1CCC(N2Cc3c(CNC(=O)c4cc(C(F)(F)F)cc(Cl)c4F)cccc3C2=O)C(=O)N1` (centres unmarked) [Compound 35, 3-chloro-N-((2-(2,6-dioxopiperidin-3-yl)-1-oxoisoindolin-4-yl)methyl)-2-fluoro-5-(trifluoromethyl)benzamide] had an EC50 in the test with MOLM-13 cells above 10000 nM. The IC50 on 6XHis-CRBN-DDB1 protein was below 1000 nM.

As for `N#Cc1cccc(C(=O)NCc2cccc3c2CN(C2CCC(=O)NC2=O)C3=O)c1` (centres unmarked) [Compound 26, 3-cyano-N-((2-(2,6-dioxopiperidin-3-yl)-1-oxoisoindolin-4-yl)methyl)benzamide], the EC50 with MOLM-13 cells is below 1000 nM. Further, the IC50 on 6XHis-CRBN-DDB1 protein was below 1000 nM.
